Results as given in US20240262833A1, “FUSED HETEROCYCLIC DERIVATIVES AS NEGATIVE ALLOSTERIC MODULATORS OF MGLU7 RECEPTOR” (Addex Pharma S.A., priority 2021, published 2024).

These compounds were tested against T1, human metabotropic glutamate 7 receptor (hmGlu7) (Homo sapiens, UniProt Q14831) (assay: mGlu7 assay on HEK-expressing human mGlu7: fluorescent cell based Ca2+ mobilization assay (FLIPR), inhibition of EC80 L-AP4 response). Settings: HEK-293 cells expressing hmGlu7; EC80 L-AP4 stimulation; mean of at least three independent experiments in duplicate; read-out: Ca2+ Flux (mean IC50).
T1 construct: expressed in transfected cells
T1 sequence (Q14831 35-922 isoform Q14831-2): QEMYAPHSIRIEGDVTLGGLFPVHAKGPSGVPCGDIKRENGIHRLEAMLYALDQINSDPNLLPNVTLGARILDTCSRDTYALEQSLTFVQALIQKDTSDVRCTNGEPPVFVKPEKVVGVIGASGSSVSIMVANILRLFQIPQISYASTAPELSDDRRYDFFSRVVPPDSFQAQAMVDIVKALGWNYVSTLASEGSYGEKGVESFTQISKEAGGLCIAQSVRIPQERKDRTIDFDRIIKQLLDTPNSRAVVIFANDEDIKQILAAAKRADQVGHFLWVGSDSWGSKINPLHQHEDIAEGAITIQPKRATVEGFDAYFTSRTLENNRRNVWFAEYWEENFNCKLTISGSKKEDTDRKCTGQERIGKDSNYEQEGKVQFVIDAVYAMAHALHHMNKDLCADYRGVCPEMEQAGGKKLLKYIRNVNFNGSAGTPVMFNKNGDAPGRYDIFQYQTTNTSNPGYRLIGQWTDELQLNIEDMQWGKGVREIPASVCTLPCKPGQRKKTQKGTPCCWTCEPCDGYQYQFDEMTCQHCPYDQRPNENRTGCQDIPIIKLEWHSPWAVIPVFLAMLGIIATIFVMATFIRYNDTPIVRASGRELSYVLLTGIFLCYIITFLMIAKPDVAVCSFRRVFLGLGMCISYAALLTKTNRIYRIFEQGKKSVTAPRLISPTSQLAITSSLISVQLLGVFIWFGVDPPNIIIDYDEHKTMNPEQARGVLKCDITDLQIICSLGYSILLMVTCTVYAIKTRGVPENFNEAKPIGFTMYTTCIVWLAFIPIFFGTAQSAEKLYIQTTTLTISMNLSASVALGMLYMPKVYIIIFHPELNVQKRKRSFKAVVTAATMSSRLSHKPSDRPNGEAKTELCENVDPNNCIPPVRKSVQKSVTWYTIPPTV
Text: mGlu7 Assay on HEK-Expressing Human mGlu7
The cDNA encoding the human metabotropic glutamate 7 receptor (hmGlu7), (accession number NM_181874.2, NCBI Nucleotide database browser), was subcloned into an expression vector containing also the hygromycin resistance gene. In parallel, the cDNA encoding a G protein allowing redirection of the activation signal to intracellular calcium flux was subcloned into a different expression vector containing also the Puromycin resistance gene. Transfection of both these vectors into HEK293 cells with PolyFect reagent (Qiagen) according to supplier's protocol, and hygromycin and puromycin treatment allowed selection of antibiotic resistant cells which had integrated stably one or more copies of the plasmids. Positive cellular clones expressing hmGlu7 were identified in a functional assay measuring changes in calcium fluxes in response to glutamate and L-AP4 or known mGlu7 orthosteric antagonists.
HEK-293 cells expressing hmGlu7 were maintained in media containing DMEM, Fetal Bovine Serum (10%), Glutamax™ (2 mM), penicillin (100 units/mL), streptomycin (100 μg/mL), geneticin (100 μg/mL) and hygromycin-B (40 μg/mL) and puromycin (1 μg/mL) at 37° C. with 5% CO2 in a humidified atmosphere.
Fluorescent Cell Based-Ca^2+ Mobilization Assay Human mGlu7 HEK-293 cells were plated out 24 hours prior to a fluorescent cell-based calcium mobilization assay using FLIPR^384 assay (Molecular Device, Sunnyvale, CA, USA) in black-walled, clear-bottomed, poly-L-ornithine-coated 384-well plates at a density of 25,000 cells/well in a glutamine/glutamate free DMEM medium containing fetal bovine serum (10%), penicillin (100 units/mL), streptomycin (100 μg/mL) and doxycyline (1 μg/ml) at 37° C. with 5% CO2 in a humidified atmosphere.
On the day of the assay, the medium was aspirated and the cells were loaded with a 3 μM solution of Fluo4-AM (LuBioScience, Lucerne, Switzerland) in 0.03% pluronic acid. After 1 hour at 37° C./5% CO2, the non incorporated dye was removed by washing cell plate with the assay buffer. All assays were performed in a pH 7.4 buffered-solution containing 20 mM HEPES, 143 mM NaCl, 6 mM KCl, 1 mM MgSO4, 1 mM CaCl2, 0.125 mM sulfinpyrazone and 0.1% glucose.
After 10 s of basal fluorescence recording, various concentrations of the compounds of the invention were added to the cells. Changes in fluorescence levels were first monitored for 180 s in order to detect any agonist activity of the compounds. Then the cells were stimulated by an EC80 L-AP4 concentration for an additional 110 s in order to measure inhibiting activities of the compounds of the invention. EC80 L-AP4 concentration is the concentration giving 80% of the maximal glutamate response.
The concentration-response curves of L-AP4 or representative compounds of the present invention were generated using the Prism GraphPad software (Graph Pad Inc, San Diego, USA). The curves were fitted to a four-parameter logistic equation: […]
allowing determination of IC50 values.
The Table 3 below represents the mean IC50 obtained from at least three independent experiments of selected molecules performed in duplicate.

SMILES | IC50 [nM]
COc1cccc(-n2c(C)c3cnn(-c4ccc(CCCO)cc4)c(=O)c3c2C)c1 [1-118] | < 100
Cc1c2cnn(-c3ccccn3)c(=O)c2c(C)n1-c1ccc(Cl)cc1 [1-3] | 100 to 1000
COc1cccc(-n2c(C)c3cnn(-c4ccccn4)c(=O)c3c2C)c1 [1-44] | 100 to 1000
COc1cccc(-n2c(C)c3cnn(-c4cccc(C#N)c4)c(=O)c3c2C)c1 [1-124] | 100 to 1000
Cc1c(OC2CC2)cccc1-n1c(C)c2cnn(-c3ncc(F)cn3)c(=O)c2c1C [1-212] | < 100
CC(=O)c1ccc(-n2c(C)c3cnn(-c4ccccc4)c(=O)c3c2C)cc1 [1-31] | < 100
Cc1c2cnn(-c3ccc(CC(N)=O)cc3)c(=O)c2c(C)n1-c1cccc(N2CCC2)c1 [1-185] | < 100
COc1ccccc1-n1ncc2c(C)n(-c3ccccc3)c(C)c2c1=O [1-5] | 1000 to 10000
Cc1c2cnn(-c3cccnc3)c(=O)c2c(C)n1-c1cccc(N2CCOCC2)c1 [1-64] | 1000 to 10000
Cc1c2cnn(-c3cccc(F)c3)c(=O)c2c(C)n1-c1ccccc1 [1-10] | 100 to 1000
CCOc1cccc(-n2c(C)c3cnn(-c4ccccn4)c(=O)c3c2C)c1 [1-77] | 100 to 1000
Cc1c2cnn(-c3ccc(S(N)(=O)=O)cc3)c(=O)c2c(C)n1-c1cccc(N2CCOCC2)c1 [1-68] | 100 to 1000
COc1cccc(-n2c(C)c3cnn(-c4ccc5ccccc5n4)c(=O)c3c2C)c1 [1-61] | 100 to 1000
Cc1c2cnn(-c3ccccn3)c(=O)c2c(C)n1-c1cccc(OC(C)C)c1 [1-139] | 100 to 1000
Cc1cccc(-n2c(C)c3cnn(-c4ccccc4)c(=O)c3c2C)c1 [1-6] | < 100
Cc1c(OC2CC2)cccc1-n1c(C)c2cnn(-c3ccc(N4CCOCC4)cc3)c(=O)c2c1C [1-221] | 1000 to 10000
Cc1c2cnn(-c3ccccn3)c(=O)c2c(C)n1-c1ccccc1 [1-22] | 1000 to 10000
COCc1ccc(-n2ncc3c(C)n(-c4cccc(OC)c4)c(C)c3c2=O)cc1 [1-128] | 100 to 1000
Cc1c2cnn(-c3ccncc3)c(=O)c2c(C)n1-c1cccc(N2CCC2)c1 [1-156] | < 100
Cc1c2cnn(-c3ccccn3)c(=O)c2c(C)n1-c1cccc(N2CCOCC2)c1 [1-90] | 1000 to 10000
Cc1c2cnn(-c3cccc(C(N)=O)c3)c(=O)c2c(C)n1-c1cccc(N2CCC2)c1 [1-152] | 100 to 1000
Cc1cccc(-n2c(C)c3cnn(-c4cccnc4)c(=O)c3c2C)c1 [1-40] | 100 to 1000
Cc1c2cnn(C34CC(C3)C4)c(=O)c2c(C)n1-c1cccc(N2CCC2)c1 [1-222] | 100 to 1000
Cc1c2cnn(-c3ccccn3)c(=O)c2c(C)n1-c1ccc(C2CC2)cc1 [1-186] | 100 to 1000

SMILES | IC50 [nM]
COc1ccc(-n2ncc3c(C)n(-c4ccccc4)c(C)c3c2=O)cn1 [1-52] | 100 to 1000
COc1ccc(-n2c(C)c3cnn(-c4cccc(C#N)c4)c(=O)c3c2C)cc1 [1-125] | 100 to 1000
Cc1c2cnn(-c3ccccn3)c(=O)c2c(C)n1-c1cccc(C2CC2)c1 [1-137] | 100 to 1000
Cc1c2cnn(-c3ccc(S(C)(=O)=O)cc3)c(=O)c2c(C)n1-c1ccccc1 [1-30] | 100 to 1000
COc1cc(-n2c(C)c3cnn(-c4ccccn4)c(=O)c3c2C)ccc1Cl [1-72] | 1000 to 10000
Cc1c(OC2CC2)cccc1-n1c(C)c2cnn(-c3ncccn3)c(=O)c2c1C [1-200] | < 100
CCc1c2c(=O)n(-c3ccccn3)ncc2c(C)n1-c1cccc(OC)c1 [1-78] | 100 to 1000
Cc1c2cnn(-c3ccccc3)c(=O)c2c(C)n1-c1ccc(N(C)C)cc1 [1-23] | 100 to 1000
Cc1ccc(-n2c(C)c3cnn(-c4ccccn4)c(=O)c3c2C)nc1 [1-56] | 1000 to 10000
Cc1c2cnn(-c3ccccn3)c(=O)c2c(C)n1-c1cc(F)cc(N2CCC2)c1 [1-195] | < 100
COCCOc1ccc(-n2ncc3c(C)n(-c4cccc(N5CCC5)c4)c(C)c3c2=O)cc1 [1-162] | < 100
COc1cccc(-n2c(C)c3cnn(-c4ccc(-c5ccccc5)cc4)c(=O)c3c2C)c1 [1-71] | 100 to 1000
COc1cc(OC)cc(-n2c(C)c3cnn(-c4ccccn4)c(=O)c3c2C)c1 [1-175] | 100 to 1000
COC(=O)c1ccc(-n2ncc3c(C)n(-c4cccc(OC)c4)c(C)c3c2=O)cc1OC [1-105] | 100 to 1000
Cc1ccc(-n2c(C)c3cnn(-c4ccccn4)c(=O)c3c2C)cc1 [1-48] | 100 to 1000
Cc1c2cnn(-c3ccccn3)c(=O)c2c(C)n1-c1cccc(N2CCCC2)c1 [1-59] | < 100
COc1ccccc1-n1c(C)c2cnn(-c3ccccc3)c(=O)c2c1C [1-18] | 100 to 1000
CC(=O)NCc1ccc(-n2ncc3c(C)n(-c4ccccc4)c(C)c3c2=O)cc1 [1-104] | 100 to 1000
Cc1c2cnn(-c3ccncc3)c(=O)c2c(C)n1-c1ccccc1 [1-37] | 100 to 1000
Cc1c2cnn(-c3ccccc3)c(=O)c2c(C)n1-c1cccc(Br)c1 [1-34, 6-(3-bromophenyl)-5,7-dimethyl-2-phenyl-2,6-dihydro-1H-pyrrolo[3,4-d]pyridazin-1-one] | 1000 to 10000
Cc1cc(-n2ncc3c(C)n(-c4cccc(N5CCC5)c4)c(C)c3c2=O)cc(C)n1 [1-165] | < 100
COCc1cccc(-n2ncc3c(C)n(-c4cccc(OC)c4)c(C)c3c2=O)c1 [1-116] | < 100
Cc1ccc(-n2ncc3c(C)n(-c4cccc(N5CCC5)c4)c(C)c3c2=O)cn1 [1-157] | < 100
Cc1ccc(-n2c(C)c3cnn(-c4ccccn4)c(=O)c3c2C)c(C)c1 [1-201] | 100 to 1000

SMILES | IC50 [nM]
Cc1c2cnn(-c3ccccn3)c(=O)c2c(C)n1-c1cccc(-n2cccc2)c1 [1-142] | < 100
CCc1c2c(=O)n(-c3ccccc3)ncc2c(C)n1-c1cccc(OC)c1 [1-89] | 100 to 1000
COc1cccc(-n2c(C)c3cnn(-c4cccc(C(=O)N(C)C)c4)c(=O)c3c2C)c1 [1-112] | 100 to 1000
COc1ccc(-n2c(C)c3cnn(-c4ccccn4)c(=O)c3c2C)cc1 [1-47] | 100 to 1000
COc1ccc(-n2c(C)c3cnn(-c4ncccn4)c(=O)c3c2C)cn1 [1-241] | 1000 to 10000
COc1cccc(-n2c(C)c3cnn(-c4cccc(CO)c4)c(=O)c3c2C)c1 [1-114] | 100 to 1000
COc1ccc(-n2ncc3c(C)n(-c4cccc(OC)c4)c(C)c3c2=O)nc1 [1-83] | 100 to 1000
COCc1ccc(-n2ncc3c(C)n(-c4ccccc4)c(C)c3c2=O)cc1 [1-38] | < 100
COc1cccc(-n2c(C)c3cnn(-c4cc[nH]c(=O)c4)c(=O)c3c2C)c1 [1-129] | 100 to 1000
COc1ccnc(-n2ncc3c(C)n(-c4cccc(N5CCC5)c4)c(C)c3c2=O)c1 [1-229] | 100 to 1000
COc1cccc(-n2c(C)c3cnn(-c4ncc(C5CC5)cn4)c(=O)c3c2C)c1C [1-207] | 100 to 1000
Cc1c2cnn(-c3ccccn3)c(=O)c2c(C)n1-c1cccc(OC(F)F)c1 [1-202] | < 100
COc1cccc(-n2c(C)c3cnn(-c4ccc(S(N)(=O)=O)cc4)c(=O)c3c2C)c1 [1-120] | < 100
Cc1c2cnn(-c3cccnc3)c(=O)c2c(C)n1-c1ccccc1 [1-9] | 100 to 1000
Cc1c2cnn(-c3ccccc3)c(=O)c2c(C)n1-c1ccccc1F [1-29] | 100 to 1000
COc1cccc(-n2c(C)c3cnn(-c4ccccn4)c(=O)c3c2C)c1F [1-233] | 100 to 1000
Cc1cncc(-n2ncc3c(C)n(-c4cccc(N5CCC5)c4)c(C)c3c2=O)c1 [1-158] | < 100
COc1cnc(-n2ncc3c(C)n(-c4cccc(N5CCC5)c4)c(C)c3c2=O)nc1 [1-224] | < 100
COc1cccc(-n2c(C)c3cnn(-c4ccccc4F)c(=O)c3c2C)c1 [1-149] | < 100
Cc1c(OC(F)F)cccc1-n1c(C)c2cnn(-c3ccccn3)c(=O)c2c1C [1-232] | 100 to 1000
COc1ccc(-n2ncc3c(C)n(-c4ccccn4)c(C)c3c2=O)cc1 [1-81] | 1000 to 10000
COc1ccc(-n2ncc3c(C)n(-c4ccccc4)c(C)c3c2=O)cc1 [1-13, 2-(4-Methoxyphenyl)-5,7-dimethyl-6-phenyl-2,6-dihydro-1H-pyrrolo[3,4-d]pyridazin-1-one] | 100 to 1000
CC(=O)c1ccc(-n2c(C)c3cnn(-c4ccccn4)c(=O)c3c2C)cc1 [1-132] | 1000 to 10000
